Measured values taken from patent US20260116868A1 (Arcus Biosciences, Inc., priority 2023, published 2026).
Like-named read-outs stand apart in the source and are kept apart here.

Legend:
Cbl-b = target: T1, Cbl-b (Homo sapiens, UniProt Q13191); assay: Cbl-b probe displacement HTRF binding assay; conditions: 0.4 nM Cbl-b, 150 nM BODIPY probe
T1 construct: biotin (biotinylated protein)
Summary of the method: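 Compound competes with BODIPY probe (150 nM) for biotinylated Cbl-b (0.4 nM) in HEPES/NaCl/Triton/TCEP/BSA buffer; 60 min preincubation, 15 min with probe, room temperature. Tb-streptavidin HTRF read; % displacement vs DMSO and no-protein controls, IC50 from four-parameter fit.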

Jurkat cells = assay: IL-2 secretion assay in Jurkat cells activated with CD3/CD28 T Cell Activator; type: cell-based; conditions: Homo sapiens, 24 h, read-out: IL-2 Secretion (EC50)
Summary of the method: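 Jurkat cells in Opti-MEM were preincubated 1 h at 37° C with compound (final 10 μM to 300 pM, 16-point 1:2 dilution), then activated with human CD3/CD28 T Cell Activator for 24 h at 37° C. Supernatant IL-2 measured by AlphaLISA; EC50 from 4-parameter logistic fit.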

[1] = Jurkat cells, CD3/CD28 T Cell Activator, IL-2 AlphaLISA

T1 sequence (Q13191 whole entry, species assumed): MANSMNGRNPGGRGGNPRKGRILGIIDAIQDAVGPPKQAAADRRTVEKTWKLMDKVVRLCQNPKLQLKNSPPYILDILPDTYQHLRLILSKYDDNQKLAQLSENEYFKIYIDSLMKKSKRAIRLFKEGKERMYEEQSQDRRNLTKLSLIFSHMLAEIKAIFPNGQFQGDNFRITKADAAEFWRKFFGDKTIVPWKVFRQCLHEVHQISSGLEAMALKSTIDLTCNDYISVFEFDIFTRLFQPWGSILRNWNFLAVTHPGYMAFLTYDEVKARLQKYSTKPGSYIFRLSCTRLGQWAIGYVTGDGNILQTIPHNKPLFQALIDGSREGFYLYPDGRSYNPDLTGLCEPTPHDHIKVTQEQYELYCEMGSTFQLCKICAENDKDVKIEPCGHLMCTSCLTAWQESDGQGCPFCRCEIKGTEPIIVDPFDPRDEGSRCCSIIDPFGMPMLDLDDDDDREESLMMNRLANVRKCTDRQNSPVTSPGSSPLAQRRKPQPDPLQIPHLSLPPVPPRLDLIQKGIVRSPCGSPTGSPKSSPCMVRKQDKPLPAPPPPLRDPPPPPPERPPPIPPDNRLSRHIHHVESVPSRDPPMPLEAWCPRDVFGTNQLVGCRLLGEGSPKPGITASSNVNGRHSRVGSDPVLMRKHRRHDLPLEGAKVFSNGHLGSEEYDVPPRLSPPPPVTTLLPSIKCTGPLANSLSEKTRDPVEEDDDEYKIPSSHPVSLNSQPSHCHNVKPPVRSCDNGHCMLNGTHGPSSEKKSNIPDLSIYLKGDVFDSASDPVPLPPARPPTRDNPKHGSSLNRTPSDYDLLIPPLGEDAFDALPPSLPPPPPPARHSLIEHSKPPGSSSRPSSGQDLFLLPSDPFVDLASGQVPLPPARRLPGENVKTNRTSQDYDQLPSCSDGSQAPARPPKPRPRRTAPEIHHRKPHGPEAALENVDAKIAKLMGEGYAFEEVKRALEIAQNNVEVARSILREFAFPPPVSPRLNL

SMILES	IC50 (Cbl-b) [nM]	EC50 (Jurkat cells; [1]) [nM]	EC50 (Jurkat cells; Jurkat) [nM]
Cn1ccnc1-c1cc(C#N)ccc1-c1cc(NC(=O)c2cc(CN3CCC4(CC4)C3)cn(C3CC3)c2=O)nc(C2CC2)c1 [Example 41, N-{4-[4-cyano-2-(1-methyl-2-imidazolyl)phenyl]-6-cyclopropyl-2-pyridyl}-5-{(5-aza-5-spiro[2.4]heptyl)methyl}-1-cyclopropyl-2-oxo-1,2-dihydronicotinamide]	< 100	100 to 1000	
C[C@H]1CCCN(Cc2cc(C(=O)Nc3cc(-c4ccc(C#N)cc4-c4nccn4C)cc(C4CC4)n3)c(=O)n(C3CC3)c2)C1 [Example 43, N-{4-[4-cyano-2-(1-methyl-2-imidazolyl)phenyl]-6-cyclopropyl-2-pyridyl}-5-{[(S)-3-methyl-1-piperidyl]methyl}-1-cyclopropyl-2-oxo-1,2-dihydronicotinamide]	< 100	< 100	
C[C@H]1CCCN(Cc2cc(C(=O)Nc3cc(-c4ccc(C(N)=O)cc4-c4nccn4C)cc(C4CC4)n3)c(=O)n(C3CC3)c2)C1 [Example 44, N-{4-[4-carbamoyl-2-(1-methyl-2-imidazolyl)phenyl]-6-cyclopropyl-2-pyridyl}-5-{[(S)-3-methyl-1-piperidyl]methyl}-1-cyclopropyl-2-oxo-1,2-dihydronicotinamide]	100 to 1000	1000 to 5000	
Cc1ocnc1-c1cc(C#N)ccc1-c1cc(NC(=O)c2cc(CNC3(C)CCC3)cn(C3CC3)c2=O)nc(C2CC2)c1 [Example 53, N-{4-[4-cyano-2-(5-methyl-1,3-oxazol-4-yl)phenyl]-6-cyclopropyl-2-pyridyl}-1-cyclopropyl-5-[(1-methylcyclobutylamino)methyl]-2-oxo-1,2-dihydronicotinamide]	< 100	100 to 1000	
COCCNCc1cc(C(=O)Nc2cc(-c3ccc(C#N)cc3-c3[nH]c(C)nc3C)cc(C3CC3)n2)c(=O)n(C2CC2)c1 [Example 54, N-{4-[4-cyano-2-(2,4-dimethyl-5-imidazolyl)phenyl]-6-cyclopropyl-2-pyridyl}-1-cyclopropyl-5-[(2-methoxyethylamino)methyl]-2-oxo-1,2-dihydronicotinamide]	< 100		100 to 1000
C[C@H]1CCCN(Cc2cc(C(=O)Nc3cc(-c4ccc(F)cc4-c4nncn4C)cc(C4CC4)n3)c(=O)n(CC3CC3)c2)C1 [Example 56, N-[6-cyclopropyl-4-[4-fluoro-2-(4-methyl-1,2,4-triazol-3-yl)phenyl]pyridin-2-yl]-1-(cyclopropylmethyl)-5-[[(3S)-3-methylpiperidin-1-yl]methyl]-2-oxopyridine-3-carboxamide]	< 100	< 100	
CC(C)n1cc(CN2CCC[C@H](C)C2)cc(C(=O)Nc2cc(-c3ccc(F)cc3-c3nncn3C)cc(C3CC3)n2)c1=O [Example 57, N-[6-cyclopropyl-4-[4-fluoro-2-(4-methyl-1,2,4-triazol-3-yl)phenyl]pyridin-2-yl]-5-[[(3S)-3-methylpiperidin-1-yl]methyl]-2-oxo-1-propan-2-ylpyridine-3-carboxamide]	< 100	< 100	
C[C@H]1CCCN(Cc2cc(C(=O)Nc3cc(-c4ccc(F)cc4-c4nncn4C)cc(C4CC4)n3)c(=O)n(CC(F)(F)F)c2)C1 [Example 58, N-[6-cyclopropyl-4-[4-fluoro-2-(4-methyl-1,2,4-triazol-3-yl)phenyl]pyridin-2-yl]-5-[[(3S)-3-methylpiperidin-1-yl]methyl]-2-oxo-1-(2,2,2-trifluoroethyl)pyridine-3-carboxamide]	< 100	< 100	
C[C@H]1CCCN(Cc2cc(C(=O)Nc3cc(-c4ccc(F)cc4-c4nncn4C)cc(C4CC4)n3)c(=O)n(CCO)c2)C1 [Example 59, N-[6-cyclopropyl-4-[4-fluoro-2-(4-methyl-1,2,4-triazol-3-yl)phenyl]pyridin-2-yl]-1-(2-hydroxyethyl)-5-[[(3S)-3-methylpiperidin-1-yl]methyl]-2-oxopyridine-3-carboxamide]	< 100	< 100	
C[C@H]1CCCN(Cc2cc(C(=O)Nc3cc(-c4ccc(F)cc4-c4nncn4C)cc(C4CC4)n3)c(=O)n(CC3CCOCC3)c2)C1 [Example 60, N-[6-cyclopropyl-4-[4-fluoro-2-(4-methyl-1,2,4-triazol-3-yl)phenyl]pyridin-2-yl]-5-[[(3S)-3-methylpiperidin-1-yl]methyl]-1-(oxan-4-ylmethyl)-2-oxopyridine-3-carboxamide]	< 100	100 to 1000	
CC(C)Cn1cc(CN2CCC[C@H](C)C2)cc(C(=O)Nc2cc(-c3ccc(F)cc3-c3nncn3C)cc(C3CC3)n2)c1=O [Example 61, N-[6-cyclopropyl-4-[4-fluoro-2-(4-methyl-1,2,4-triazol-3-yl)phenyl]pyridin-2-yl]-5-[[(3S)-3-methylpiperidin-1-yl]methyl]-1-(2-methylpropyl)-2-oxopyridine-3-carboxamide]	< 100	< 100	
C[C@H]1CCCN(Cc2cc(C(=O)Nc3cc(-c4ccc(F)cc4-c4nncn4C)cc(C4CC4)n3)c(=O)n(CC3CCC3)c2)C1 [Example 62, 1-(cyclobutylmethyl)-N-[6-cyclopropyl-4-[4-fluoro-2-(4-methyl-1,2,4-triazol-3-yl)phenyl]pyridin-2-yl]-5-[[(3S)-3-methylpiperidin-1-yl]methyl]-2-oxopyridine-3-carboxamide]	< 100	< 100	

Second part, led by results:

IC50 (Cbl-b) [nM]	EC50 (Jurkat cells; [1]) [nM]	SMILES	EC50 (Jurkat cells; Jurkat) [nM]
< 100	< 100	COCCNCc1cc(C(=O)Nc2cc(-c3ccc(C#N)cc3-c3nccn3C)cc(C3CC3)n2)c(=O)n(C2CC2)c1 [Example 42, N-{4-[4-cyano-2-(1-methyl-2-imidazolyl)phenyl]-6-cyclopropyl-2-pyridyl}-1-cyclopropyl-5-[(2-methoxyethylamino)methyl]-2-oxo-1,2-dihydronicotinamide]	
< 100	< 100	[2H]C([2H])([2H])n1ccnc1-c1cc(C#N)ccc1-c1cc(NC(=O)c2cc(CNCCOC)cn(C3CC3)c2=O)nc(C2CC2)c1 [Example 45, N-[4-(4-cyano-2-{1-[(^2H3)methyl]-2-imidazolyl}phenyl)-6-cyclopropyl-2-pyridyl]-1-cyclopropyl-5-[(2-methoxyethylamino)methyl]-2-oxo-1,2-dihydronicotinamide]	
100 to 1000	1000 to 5000	COCCNCc1cc(C(=O)Nc2cc(-c3ccc(C#N)cc3-c3nc(C(F)(F)F)cn3C)cc(C3CC3)n2)c(=O)n(C2CC2)c1 [Example 46, N-(4-{4-cyano-2-[1-methyl-4-(trifluoromethyl)-2-imidazolyl]phenyl}-6-cyclopropyl-2-pyridyl)-1-cyclopropyl-5-[(2-methoxyethylamino)methyl]-2-oxo-1,2-dihydronicotinamide]	
100 to 1000	1000 to 5000	C[C@H]1CCCN(Cc2cc(C(=O)Nc3cc(-c4ccc(C#N)cc4-c4nc(C(F)(F)F)cn4C)cc(C4CC4)n3)c(=O)n(C3CC3)c2)C1 [Example 47, N-(4-{4-cyano-2-[1-methyl-4-(trifluoromethyl)-2-imidazolyl]phenyl}-6-cyclopropyl-2-pyridyl)-5-{[(S)-3-methyl-1-piperidyl]methyl}-1-cyclopropyl-2-oxo-1,2-dihydronicotinamide]	
< 100	< 100	COCCNCc1cc(C(=O)Nc2cc(-c3ccc(C#N)cc3-c3nc(C#N)cn3C)cc(C3CC3)n2)c(=O)n(C2CC2)c1 [Example 48, N-{4-[4-cyano-2-(4-cyano-1-methyl-2-imidazolyl)phenyl]-6-cyclopropyl-2-pyridyl}-1-cyclopropyl-5-[(2-methoxyethylamino)methyl]-2-oxo-1,2-dihydronicotinamide]	
< 100	< 100	Cn1cc(C#N)nc1-c1cc(C#N)ccc1-c1cc(NC(=O)c2cc(CNC3(C)CCC3)cn(C3CC3)c2=O)nc(C2CC2)c1 [Example 49, N-{4-[4-cyano-2-(4-cyano-1-methyl-2-imidazolyl)phenyl]-6-cyclopropyl-2-pyridyl}-1-cyclopropyl-5-[(1-methylcyclobutylamino)methyl]-2-oxo-1,2-dihydronicotinamide]	
1000 to 5000	> 5000	COCCNCc1cc(C(=O)Nc2cc(-c3ccc(C#N)cc3-c3ocnc3C)cc(C3CC3)n2)c(=O)n(C2CC2)c1 [Example 52, N-{4-[4-cyano-2-(4-methyl-1,3-oxazol-5-yl)phenyl]-6-cyclopropyl-2-pyridyl}-1-cyclopropyl-5-[(2-methoxyethylamino)methyl]-2-oxo-1,2-dihydronicotinamide]	
< 100	< 100	Cn1cnnc1-c1cc(F)ccc1-c1cc(NC(=O)c2cc(CNC3(C)CCC3)cn(CC3CC3)c2=O)nc(C2CC2)c1 [Example 55]	
< 100	100 to 1000	COCCNCc1cc(C(=O)Nc2cc(-c3ccc(C#N)cc3-c3nc(C#N)cn3C)cc(C3CC3)n2)c(=O)n(CC2CC2)c1 [Example 63, N-{4-[4-cyano-2-(4-cyano-1-methyl-2-imidazolyl)phenyl]-6-cyclopropyl-2-pyridyl}-1-(cyclopropylmethyl)-5-[(2-methoxyethylamino)methyl]-2-oxo-1,2-dihydronicotinamide]	
< 100	100 to 1000	COCCNCc1cc(C(=O)Nc2cc(-c3ccc(C#N)cc3-c3ncoc3C)cc(C3CC3)n2)c(=O)n(CC2CC2)c1 [Example 64, N-{4-[4-cyano-2-(5-methyl-1,3-oxazol-4-yl)phenyl]-6-cyclopropyl-2-pyridyl}-1-(cyclopropylmethyl)-5-[(2-methoxyethylamino)methyl]-2-oxo-1,2-dihydronicotinamide]	
